Experimental data: patent US20250057857A1, “AQUEOUS PARENTERAL PHARMACEUTICAL FORMULATIONS CONTAINING 4-((2-HYDROXY-3-METHOXYBENZYL)AMINO) BENZENESULFONAMIDE DERIVATIVES” (Veralox Therapeutics Inc., priority 2021, published 2025)
Values after ≈ are worked out from the molar mass of the structure shown. Values belong to the compound of their own block, whether it stands above or below them.

Legend:
Assay type in all cases: physicochemical
[1] = Solubility in HP-β-CD at high pH; settings: 25% cyclodextrin solution, aqueous with cosolvent or surfactant or cyclodextrin
Experimental: Compound forms a metastable supersaturated solution when formulated with cyclodextrins. To assess for increased solubility, Compound 1 was added to a basic cyclodextrin solution to effect dissolution. The resulting solution was then adjusted with hydrochloric acid into a physiologically compatible pH range and subjected to kinetic solubility, equilibrium solubility, and formulation solubility analyses.
Kinetic solubility. […] The resulting intermediate pH values were approximately 12.5, which promoted rapid dissolution of Compound 1. However, the solutions are known to be chemically labile at higher pH values. The concentration of Compound 1 in subsequent formulation evaluations was lowered to 20 mg/mL and then reduced to 15 mg/mL.

[2] = Comparative solubility in SBE-β-CD at pH 9.5; settings: pH 9.5, 80 mg/mL, 22 hours stirring at room temperature
Experimental: For this study, 1.20 g of SBE-β-CD was weighed into a beaker and 1.31 mL of water was added. This mixture was stirred to dissolve solid completely. 0.846 g of 60% SBE-β-CD stock solution was weighed into a sample vial, and 1.53 mg of GLY, 70 μL of water, and 130 μL of 2N NaOH were added. This mixture was stirred for 10 minutes at room temperature to dissolve solid completely. 80.6 mg of Compound 1 was added (80 mg/mL) and the mixture was sonicated for 10 minutes followed by vigorous stirring for 22 hours at room temperature (23-25° C.).

[3] = Aqueous solubility (general statements)
[4] = Solubility measurement in solvents; settings: for solubility at 2 h / solubility at 0.5 h: room temperature
Experimental: (§1) Solubility analysis of Compound 1 (N-(benzo[d]thiazol-2-yl)-4-((2-hydroxy-3-methoxybenzyl)amino)benzenesulfonamide) was performed in a total of 25 media including organic solvent, co-solvent, solubilizer and buffer, for 2 hours at room temperature.
(§2) HPLC method with acceptable resolution and main peak purity developed to determine solubility. The method is described in Table 3.
About 5 mg of Compound 1 was weighed to sample vial and 0.5 mL of solvent was added (target concentration was 10 mg/mL) with 30-100 μL per time. The samples were shaken at room temperature. The samples were prepared in duplicate (n=2) per medium and filtered at 0.5 and 2 hours. The supernatant was collected and analyzed by HPLC.

[5] = Solubility measurement in buffers over a pH range; settings: thermodynamic from solid
Experimental: as §1, §2
(§3) 5-10 mg of Compound 1 was added to 0.5-1 mL each medium (target concentration was 10 mg/mL), vortexed briefly to create a suspension. The samples were shaken at room temperature. The samples were prepared in duplicate (n=2) per medium and filtered at 0.5 and 2 hours. The supernatant was collected and analyzed by HPLC.

[6] = Solubility measurement in solubilizers (aqueous phosphate buffer at pH 7.4)
Experimental: as §1, §2, §3

[7] = pH 8.0, read-out: Solubility with 25% cyclodextrin at pH 8.0
[8] = pH 9.8, read-out: Solubility with 25% cyclodextrin at pH 9.8

- solubility [1, 7]: ~20000 µg/mL (≈ 45300 µM)
- solubility [1, 8]: ~40000 µg/mL (≈ 90600 µM)
- Dissolution in SBE-β-CD, visual observation [2]: Little, if any, dissolution
- Solubility in water [3]: poor solubility
- solubility at 2 h ([4]; DMAC, 2 h, visual observation): Not precipitated
- solubility at 0.5 h ([4]; DMAC, organic solvent or mixture, thermodynamic from solid, 0.5 h, visual observation): > 100000 µg/mL
- solubility at 2 h ([4]; DMSO, 2 h, visual observation): Not precipitated
- solubility at 0.5 h ([4]; DMSO, organic solvent or mixture, thermodynamic from solid, 0.5 h, visual observation): > 100000 µg/mL
- solubility at 0.5 h ([4]; EtOH, organic solvent or mixture, thermodynamic from solid, 0.5 h): 290 µg/mL (≈ 657 µM)
- solubility at 2 h ([4]; EtOH, organic solvent or mixture, thermodynamic from solid, EtOH, 2 h, read-out: Solubility at 2 h): 270 µg/mL (≈ 612 µM)
- solubility at 0.5 h ([4]; Glycerin, organic solvent or mixture, thermodynamic from solid, 0.5 h): 13 µg/mL (≈ 29.4 µM)
- solubility at 2 h ([4]; Glycerin, organic solvent or mixture, thermodynamic from solid, Glycerin, 2 h, read-out: Solubility at 2 h): 25 µg/mL (≈ 56.6 µM)
- solubility at 2 h ([4]; NMP, 2 h, visual observation): Not precipitated
- solubility at 0.5 h ([4]; NMP, organic solvent or mixture, thermodynamic from solid, 0.5 h, visual observation): > 100000 µg/mL
- solubility at 0.5 h ([4]; PEG400, organic solvent or mixture, thermodynamic from solid, PEG400, 0.5 h): 4420 µg/mL (≈ 10000 µM)
- solubility at 2 h ([4]; PEG400, organic solvent or mixture, thermodynamic from solid, PEG400, 2 h, solution was clear at 2 h, read-out: Solubility at 2 h): > 10000 µg/mL
- solubility ([4]; PEG400, organic solvent or mixture, thermodynamic from solid, PEG400, span over 0.5 h and 2 h, read-out: Solubility in PEG400): 4000 to 10000 µg/mL (≈ 9060 to 22600 µM)
- solubility at 0.5 h ([4]; PG, organic solvent or mixture, thermodynamic from solid, 0.5 h): 400 µg/mL (≈ 906 µM)
- solubility at 2 h ([4]; PG, organic solvent or mixture, thermodynamic from solid, PG, 2 h, read-out: Solubility at 2 h): 420 µg/mL (≈ 951 µM)
- solubility ([4]; hexane, organic solvent or mixture, thermodynamic from solid, hexane, non-polar solvent, read-out: Solubility in hexane): < 0.15 µg/mL
- solubility at 0.5 h ([4]; n-Hexane, organic solvent or mixture, thermodynamic from solid, 0.5 h, LOQ = 0.00015 mg/mL): < 0.15 µg/mL
- solubility at 2 h ([4]; n-Hexane, organic solvent or mixture, thermodynamic from solid, n-Hexane, 2 h, LOQ = 0.00015 mg/mL, read-out: Solubility at 2 h): < 0.15 µg/mL
- solubility ([4]; solvents other than DMSO, DMAC, NMP and PEG400, organic solvent or mixture, thermodynamic from solid, solvents other than DMSO, DMAC, NMP and PEG400, read-out: Solubility in other solvents): < 1000 µg/mL
- solubility at 0.5 h ([5]; bicarbonate buffer pH 10.0, pH 10, aqueous buffer, Bicarbonate, pH 10.0, 0.5 h (measured pH 10.02)): 0.397 µg/mL (≈ 0.899 µM)
- solubility at 2 h ([5]; bicarbonate buffer pH 10.0, pH 10, aqueous buffer, Bicarbonate, pH 10.0, 2 h (measured pH 10.08)): 0.576 µg/mL (≈ 1.31 µM)
- solubility ([5]; pH 10 buffer, pH 10, aqueous buffer, pH 10, read-out: Solubility in pH 10 buffer): 0.4 to 0.6 µg/mL (≈ 0.906 to 1.36 µM)
- solubility ([5]; pH buffers, pH 1, aqueous buffer, pH 1-9 buffers, main peak not detected by HPLC, read-out: Solubility in pH buffers, pH 1-9): < 0.15 µg/mL
- solubility at 0.5 h ([6]; 1% Tween 80 in phosphate buffer, pH 7.4, aqueous with cosolvent or surfactant or cyclodextrin, thermodynamic from solid, 1% Tween 80, phosphate buffer pH 7.4, 0.5 h): 20 µg/mL (≈ 45.3 µM)
- solubility at 2 h ([6]; 1% Tween 80 in phosphate buffer, pH 7.4, aqueous with cosolvent or surfactant or cyclodextrin, thermodynamic from solid, 1% Tween 80, phosphate buffer pH 7.4, 2 h, read-out: Solubility at 2 h): 39 µg/mL (≈ 88.3 µM)
- solubility at 0.5 h ([6]; 5% Cremophor RH40 in phosphate buffer, pH 7.4, aqueous with cosolvent or surfactant or cyclodextrin, thermodynamic from solid, 5% Cremophor RH40, phosphate buffer pH 7.4, 0.5 h): 47 µg/mL (≈ 106 µM)
- solubility at 2 h ([6]; 5% Cremophor RH40 in phosphate buffer, pH 7.4, aqueous with cosolvent or surfactant or cyclodextrin, thermodynamic from solid, 5% Cremophor RH40, phosphate buffer pH 7.4, 2 h, read-out: Solubility at 2 h): 51 µg/mL (≈ 116 µM)
- solubility at 0.5 h ([6]; 5% Solutol in phosphate buffer, pH 7.4, aqueous with cosolvent or surfactant or cyclodextrin, thermodynamic from solid, 5% Solutol, phosphate buffer pH 7.4, 0.5 h): 78 µg/mL (≈ 177 µM)
- solubility at 2 h ([6]; 5% Solutol in phosphate buffer, pH 7.4, aqueous with cosolvent or surfactant or cyclodextrin, thermodynamic from solid, 5% Solutol, phosphate buffer pH 7.4, 2 h, read-out: Solubility at 2 h): ~100 µg/mL (≈ 226 µM)
- solubility at 2 h ([6]; 5% Solutol, phosphate buffer pH 7.4, 2 h): 100 µg/mL (≈ 226 µM)
- solubility at 0.5 h ([6]; 5% Tween 80 in phosphate buffer, pH 7.4, aqueous with cosolvent or surfactant or cyclodextrin, thermodynamic from solid, 5% Tween 80, phosphate buffer pH 7.4, 0.5 h): 41 µg/mL (≈ 92.9 µM)
- solubility at 2 h ([6]; 5% Tween 80 in phosphate buffer, pH 7.4, aqueous with cosolvent or surfactant or cyclodextrin, thermodynamic from solid, 5% Tween 80, phosphate buffer pH 7.4, 2 h, read-out: Solubility at 2 h): 46 µg/mL (≈ 104 µM)
- solubility at 0.5 h ([6]; 10% HP-β-CD in phosphate buffer, pH 7.4, aqueous with cosolvent or surfactant or cyclodextrin, thermodynamic from solid, 10% HP-β-CD, phosphate buffer pH 7.4, 0.5 h): 56 µg/mL (≈ 127 µM)
- solubility at 2 h ([6]; 10% HP-β-CD in phosphate buffer, pH 7.4, aqueous with cosolvent or surfactant or cyclodextrin, thermodynamic from solid, 10% HP-β-CD, phosphate buffer pH 7.4, 2 h, read-out: Solubility at 2 h): 63 µg/mL (≈ 143 µM)
- solubility at 0.5 h ([6]; 10% Tween 80 in phosphate buffer, pH 7.4, aqueous with cosolvent or surfactant or cyclodextrin, thermodynamic from solid, 10% Tween 80, phosphate buffer pH 7.4, 0.5 h): 76 µg/mL (≈ 172 µM)
- solubility at 2 h ([6]; 10% Tween 80 in phosphate buffer, pH 7.4, aqueous with cosolvent or surfactant or cyclodextrin, thermodynamic from solid, 10% Tween 80, phosphate buffer pH 7.4, 2 h, read-out: Solubility at 2 h): 78 µg/mL (≈ 177 µM)
- solubility at 0.5 h ([6]; 20% Captisol in phosphate buffer, pH 7.4, aqueous with cosolvent or surfactant or cyclodextrin, thermodynamic from solid, 20% Captisol, phosphate buffer pH 7.4, 0.5 h): 100 µg/mL (≈ 226 µM)
- solubility at 2 h ([6]; 20% Captisol in phosphate buffer, pH 7.4, aqueous with cosolvent or surfactant or cyclodextrin, thermodynamic from solid, 20% Captisol, phosphate buffer pH 7.4, 2 h, read-out: Solubility at 2 h): 110 µg/mL (≈ 249 µM)
- solubility at 0.5 h ([6]; 20% HP-β-CD in phosphate buffer, pH 7.4, aqueous with cosolvent or surfactant or cyclodextrin, thermodynamic from solid, 20% HP-β-CD, phosphate buffer pH 7.4, 0.5 h): 170 µg/mL (≈ 385 µM)
- solubility at 2 h ([6]; 20% HP-β-CD in phosphate buffer, pH 7.4, aqueous with cosolvent or surfactant or cyclodextrin, thermodynamic from solid, 20% HP-β-CD, phosphate buffer pH 7.4, 2 h, read-out: Solubility at 2 h): 190 µg/mL (≈ 430 µM)
- solubility at 0.5 h ([6]; 40% HP-β-CD in aqueous phosphate buffer pH 7.4, pH 7.4, aqueous with cosolvent or surfactant or cyclodextrin, thermodynamic from solid, 40% HP-β-CD, phosphate buffer pH 7.4, 0.5 h): 450 µg/mL (≈ 1020 µM)
- solubility at 2 h ([6]; 40% HP-β-CD in phosphate buffer, pH 7.4, aqueous with cosolvent or surfactant or cyclodextrin, thermodynamic from solid, 40% HP-β-CD, phosphate buffer pH 7.4, 2 h, read-out: Solubility at 2 h): 570 µg/mL (≈ 1290 µM)
- Increase of solubility with the increase of HP-β-CD from 10% to 40% ([6]; HP-β-CD 10% to 40%, pH 7.4): > 8 fold
- solubility ([6]; HP-β-CD (range of contents) in aqueous phosphate buffer, pH 7.4, aqueous with cosolvent or surfactant or cyclodextrin, thermodynamic from solid, HP-β-CD, range over contents tested): 50 to 500 µg/mL (≈ 113 to 1130 µM)
- Increase of solubility with the increase of Tween 80 from 1% to 10% ([6]; Tween 80 1% to 10%): about 4 fold
- Solubility in HP-β-CD compared with Captisol (SBE-β-CD) ([6]; same concentration (20%)): nearly two times greater
Structure (SMILES): COc1cccc(CNc2ccc(S(=O)(=O)Nc3nc4ccccc4s3)cc2)c1O [Compound 1, N-(benzo[d]thiazol-2-yl)-4-((2-hydroxy-3-methoxybenzyl)amino)benzenesulfonamide]

- solubility [1, 7]: ~20000 µg/mL (≈ 46900 µM)
- solubility [1, 8]: ~40000 µg/mL (≈ 93800 µM)
- Solubility in water [3]: poor solubility
Structure (SMILES): COc1cccc(CNc2ccc(S(=O)(=O)Nc3cccc(C(C)C)c3)cc2)c1O [Compound 3, 4-((2-hydroxy-3-methoxybenzyl)amino)-N-(3-isopropylphenyl)benzenesulfonamide]

- solubility [1, 7]: ~20000 µg/mL (≈ 47000 µM)
- solubility [1, 8]: ~40000 µg/mL (≈ 94000 µM)
- Solubility in water [3]: poor solubility
Structure (SMILES): COc1cccc(CNc2ccc(S(=O)(=O)Nc3nc4ccccc4o3)cc2)c1O [Compound 2, N-(benzo[d]oxazol-2-yl)-4-((2-hydroxy-3-methoxybenzyl)amino)benzenesulfonamide]
